Among the data in publication PMC7470090, “Identification of probe-quality degraders for Poly(ADP-ribose) polymerase-1 (PARP-1)” (Journal of Enzyme Inhibition and Medicinal Chemistry, 2020) are IC50 values, retold here.

In the test the target is T1, PARP-1 (Homo sapiens, UniProt P09874).
T1 construct: gene PARP1
The experiment in a line: cell-free PARP-1 inhibition assay, dose-response. Format: biochemical.

T1 sequence (P09874 2-1014): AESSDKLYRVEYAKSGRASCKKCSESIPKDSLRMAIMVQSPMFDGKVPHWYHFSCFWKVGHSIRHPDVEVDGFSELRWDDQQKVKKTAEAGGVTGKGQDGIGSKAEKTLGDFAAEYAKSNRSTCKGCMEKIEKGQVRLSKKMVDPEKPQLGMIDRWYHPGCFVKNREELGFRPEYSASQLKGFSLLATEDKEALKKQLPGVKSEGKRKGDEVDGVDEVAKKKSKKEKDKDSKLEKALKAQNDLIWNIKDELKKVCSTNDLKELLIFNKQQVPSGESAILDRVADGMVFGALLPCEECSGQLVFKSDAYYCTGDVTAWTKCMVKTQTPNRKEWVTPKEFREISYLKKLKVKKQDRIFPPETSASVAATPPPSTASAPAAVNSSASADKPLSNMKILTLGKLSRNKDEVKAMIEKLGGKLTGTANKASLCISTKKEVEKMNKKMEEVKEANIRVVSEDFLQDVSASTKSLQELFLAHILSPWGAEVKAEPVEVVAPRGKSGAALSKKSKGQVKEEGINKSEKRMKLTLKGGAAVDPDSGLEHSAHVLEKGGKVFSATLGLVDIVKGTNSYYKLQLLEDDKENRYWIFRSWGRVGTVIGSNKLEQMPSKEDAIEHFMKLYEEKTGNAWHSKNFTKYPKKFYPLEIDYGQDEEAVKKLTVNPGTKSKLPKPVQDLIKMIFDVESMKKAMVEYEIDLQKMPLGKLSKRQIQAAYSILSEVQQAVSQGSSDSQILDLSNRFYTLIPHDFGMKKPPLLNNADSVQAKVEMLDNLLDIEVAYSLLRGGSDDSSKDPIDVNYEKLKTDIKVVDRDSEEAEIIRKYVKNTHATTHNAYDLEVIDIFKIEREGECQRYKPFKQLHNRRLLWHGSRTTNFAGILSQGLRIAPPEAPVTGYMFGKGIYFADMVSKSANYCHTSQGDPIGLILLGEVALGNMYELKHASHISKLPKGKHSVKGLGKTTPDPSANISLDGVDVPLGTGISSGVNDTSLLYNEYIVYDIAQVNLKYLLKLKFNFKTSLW

`O=C1CCC(N2Cc3c(NC(=O)CCCCCCCCCCCNC(=O)c4cc(Cc5n[nH]c(=O)c6ccccc56)ccc4F)cccc3C2=O)C(=O)N1` (stereo not drawn) [compound 3, N-(12-((2–(2,6-dioxopiperidin-3-yl)-1-oxoisoindolin-4-yl)amino)-12-oxododecyl)-2-fluoro-5-((4-oxo-3,4-dihydrophthalazin-1-yl)methyl)benzamide] displayed a concentration for half-maximal inhibition (IC50) of 20.7 nM.

For `O=C1CCC(N2Cc3c(NC(=O)CCCCCCCCCCNC(=O)c4cc(Cc5n[nH]c(=O)c6ccccc56)ccc4F)cccc3C2=O)C(=O)N1` (stereo not drawn) [compound 2, N-(11-((2–(2,6-dioxopiperidin-3-yl)-1-oxoisoindolin-4-yl)amino)-11-oxoundecyl)-2-fluoro-5-((4-oxo-3,4-dihydrophthalazin-1-yl)methyl)benzamide], the IC50 is 54.7 nM.

Consider `O=C1CCC(N2Cc3c(NC(=O)CCCCCCCNC(=O)c4cc(Cc5n[nH]c(=O)c6ccccc56)ccc4F)cccc3C2=O)C(=O)N1` (stereo not drawn) [compound 1, N-(8-((2–(2,6-dioxopiperidin-3-yl)-1-oxoisoindolin-4-yl)amino)-8-oxooctyl)-2-fluoro-5-((4-oxo-3,4-dihydrophthalazin-1-yl)methyl)benzamide], for which 71.3 nM corresponded to half-maximal inhibition (IC50).

Usually IC50 stands for the concentration needed to halve the response being measured. Low values mean higher potency, high ones lower potency.
